The values that follow come from patent US20080280941A1, “8-Phenoxy-Gamma Carboline Derivatives” (priority 2004, published 2008).

The test system of series [1] is inflammation induced by the stimulation of the saphenous nerve. Nature of the series: Inhibition of neurogenic inflammation (plasmatic extravasation) induced by electrical stimulation of the saphenous nerve. The conditions noted are these: rat, 15 minutes before electrical stimulation of the saphenous nerve, Evans Blue extravasation. Type of series: in vivo, male Wistar rats. How it is done: The results of the pharmacological studies are given below. • 1. The inhibitory power of the molecules on inflammation induced by the stimulation of the saphenous nerve has been measured at follows 24 hours after a treatment with guanethidine (20 mg/kg, sc), the male Wistar rats (220-250 g) are anaesthetized with sodic pentobarbital (60 mg/kg, ip). The two back legs are shaved. After a cut in the upper part of the thigh, the saphenous nerve is cleared, cut, placed on a platinum electrode and immersed in a drop of paraffin oil. Only the electrode placed on the right leg is connected to a stimulator. This latter represents the “stimulated” leg by contrast to the “sham” left leg. The product (at a dosage of 5 μg/kg) or the corresponding solvent (NaCl 9 ‰-DMSO) are administrated via the jugular vein, 15 minutes before the electrical stimulation (ES). A plasmatic marker, Evans Blue (20 mg/kg iv) is administered through the penis vein 5 minutes before the ES. The saphenous nerve is stimulated according to the following conditions: 3V; 5 Hz; 1 ms; 5 minutes (Harvard stimulator). At the end of the ES, a blood sample is realized by cardiac puncture and the skin of the edema of each leg (visualized by the extravasation of the Evans Blue) is sampled and weighted later. The animals are killed by anaesthetical overdose. The blood samples are centrifuged (3,000 rotations/minute, during 15 minutes). […] The Evans Blue is measured in the plasma and after extraction of the skin biopsies by a spectrophotometrical method, at 620 nm. […] The vascular contractile response has been measured with saphenous vein rings of rabbits (new Zealand, 2.5 to 3 kg) bound to a sensor, installed in organs baths (EMKA Technologies), containing a physiological Krebs-[…] solution. […] The vasoconstrictive effect of the molecules with increasing concentrations is evaluated with saphenous vein rings contracted in an intermediate manner with 40 mmol/l KCl and treated with 0.5 μmol/l pargyline, an inhibitor of monoamine oxydase. The results are expressed as percent of the maximum effect induced by serotonine at 1 μmol/l. […]

Series [2] deals with saphenous vein rings of rabbits. Put plainly: Vascular contractile response of isolated saphenous vein rings. Further details: species or system rabbits (new Zealand). As to conditions: rabbit saphenous vein rings, percent of the maximum effect induced by serotonine at 1 μmol/l. How it is done: (§1) 24 hours after a treatment with guanethidine (20 mg/kg, sc), the male Wistar rats (220-250 g) are anaesthetized with sodic pentobarbital (60 mg/kg, ip). The two back legs are shaved. After a cut in the upper part of the thigh, the saphenous nerve is cleared, cut, placed on a platinum electrode and immersed in a drop of paraffin oil. Only the electrode placed on the right leg is connected to a stimulator. This latter represents the “stimulated” leg by contrast to the “sham” left leg. The product (at a dosage of 5 μg/kg) or the corresponding solvent (NaCl 9 ‰-DMSO) are administrated via the jugular vein, 15 minutes before the electrical stimulation (ES). A plasmatic marker, Evans Blue (20 mg/kg iv) is administered through the penis vein 5 minutes before the ES. The saphenous nerve is stimulated according to the following conditions: 3V; 5 Hz; 1 ms; 5 minutes (Harvard stimulator). […] The Evans Blue is measured in the plasma and after extraction of the skin biopsies by a spectrophotometrical method, at 620 nm. […] The vascular contractile response has been measured with saphenous vein rings of rabbits (new Zealand, 2.5 to 3 kg) bound to a sensor, installed in organs baths (EMKA Technologies), containing a physiological Krebs-Henseileit solution. […] The vasoconstrictive effect of the molecules with increasing concentrations is evaluated with saphenous vein rings contracted in an intermediate manner with 40 mmol/l KCl and treated with 0.5 μmol/l pargyline, an inhibitor of monoamine oxydase. The results are expressed as percent of the maximum effect induced by serotonine at 1 μmol/l. […] The binding on the 5HT1B/5HT1D receptors of isolated membranes of bovine nuclear caudal has been measured by measuring the shifting of 5 nmoml/l of [^3H]5-carboxamidotryptamine by increasing concentrations of the molecule in the presence of 100 nmol/l of 8-OH-dipropylaminotetralin (8-OH-DPAT) in order to mask the 5HT1A receptors and in the presence of 100 nM of mesulergine in order to mask the 5HT2 receptors.

Series [3] concerns the target 5HT1B/5HT1D receptors of isolated membranes of bovine nuclear caudal. Nature of the series: Binding on 5HT1B/5HT1D receptors, shifting of [3H]5-carboxamidotryptamine. The conditions noted are these: 100 nmol/l 8-OH-DPAT and 100 nM mesulergine. How it is done: as §1
The target in series [4] is T1, 5HT1A receptors of isolated membranes of rat brain (Rattus norvegicus, UniProt P19327).
T1 construct: isolated membranes of rat brain; from tissue; host or cells: rat brain membranes
T1 sequence (P19327 1-422): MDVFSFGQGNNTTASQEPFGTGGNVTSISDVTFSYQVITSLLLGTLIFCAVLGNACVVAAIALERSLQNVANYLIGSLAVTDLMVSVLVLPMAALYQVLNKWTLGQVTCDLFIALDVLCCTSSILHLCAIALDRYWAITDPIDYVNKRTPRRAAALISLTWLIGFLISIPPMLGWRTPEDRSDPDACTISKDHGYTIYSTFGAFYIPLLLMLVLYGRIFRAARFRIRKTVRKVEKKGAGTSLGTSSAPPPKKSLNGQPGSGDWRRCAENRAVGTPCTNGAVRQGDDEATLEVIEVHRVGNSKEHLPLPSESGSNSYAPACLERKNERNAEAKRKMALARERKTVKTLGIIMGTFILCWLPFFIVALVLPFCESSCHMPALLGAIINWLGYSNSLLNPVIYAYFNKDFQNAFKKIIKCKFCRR
Put plainly: Binding to 5HT1A receptors, shifting of [3H]8-OH-DPAT. As to conditions: 100 nmol/l mesulergine.

Some results are limits rather than exact numbers.

One may read the IC50 as the concentration that gives 50% inhibition. By melting point is commonly meant the temperature, or range, at which the solid turns liquid.

Turning to `c1ccc(Oc2ccc3[nH]c4c(c3c2)CNCC4)cc1` [Example 1, 8-Phenoxy-2,3,4,5-tetrahydro-1H-pyrido[4,3-b]indole], in series [1], the “Neuro. Inf. Inhib. (%) 5 μg/kg iv” value is 65%. Further, the “Contraction. Saph. Vein 10^−6 mol/l (%)” value in series [2] is on record as 0%. The IC50 in series [3] was 10 µM; in series [4] it was 30 µM.
`Cl.c1ccc(CN2CCc3[nH]c4ccc(Oc5ccccc5)cc4c3C2)cc1` [Example 3, 8-Phenoxy-N-benzyl-2,3,4,5-tetrahydro-5H-pyridinium[4,3-b]indole-hydrochloride]: in series [1], the “Neuro. Inf. Inhib. (%) 5 μg/kg iv” value came out at 80%. Besides, the “Contraction. Saph. Vein 10^−6 mol/l (%)” value in series [2] is 0%. Moreover, the IC50 in series [3] and in series [4] was more than 5 µM in each case.
`c1ccc(CN2CCc3[nH]c4ccc(Oc5ccccc5)cc4c3C2)cc1` [Example 2, 8-Phenoxy-N-benzyl-2,3,4,5-tetrahydro-1H-pyrido[4,3-b]indole] showed a melting point of 102.3 °C. Besides, the “Neuro. Inf. Inhib. (%) 5 μg/kg iv” value in series [1] is given as 60%. Also, the “Contraction. Saph. Vein 10^−6 mol/l (%)” value in series [2] amounted to 0%. The IC50 in series [3] was more than 10 µM. The IC50 in series [4] is more than 10 µM.
